From ChEMBL document CHEMBL3431459, “Roche carnitine palmitoyltransferase modulator screening data (supplementary data associated with the publication CHEMBL2216752)”
≈ marks a conversion by molar mass, not a printed value.

Columns and labels:
[1] = biological target: T1, Carnitine O-palmitoyltransferase 1, muscle isoform (Homo sapiens, UniProt Q92523); assay: SUPPLEMENTARY: Inhibition of Carnitine palmitoyltransferase 1, muscle isoform; design: species or system Muscle tissue
T1 sequence (Q92523 whole entry): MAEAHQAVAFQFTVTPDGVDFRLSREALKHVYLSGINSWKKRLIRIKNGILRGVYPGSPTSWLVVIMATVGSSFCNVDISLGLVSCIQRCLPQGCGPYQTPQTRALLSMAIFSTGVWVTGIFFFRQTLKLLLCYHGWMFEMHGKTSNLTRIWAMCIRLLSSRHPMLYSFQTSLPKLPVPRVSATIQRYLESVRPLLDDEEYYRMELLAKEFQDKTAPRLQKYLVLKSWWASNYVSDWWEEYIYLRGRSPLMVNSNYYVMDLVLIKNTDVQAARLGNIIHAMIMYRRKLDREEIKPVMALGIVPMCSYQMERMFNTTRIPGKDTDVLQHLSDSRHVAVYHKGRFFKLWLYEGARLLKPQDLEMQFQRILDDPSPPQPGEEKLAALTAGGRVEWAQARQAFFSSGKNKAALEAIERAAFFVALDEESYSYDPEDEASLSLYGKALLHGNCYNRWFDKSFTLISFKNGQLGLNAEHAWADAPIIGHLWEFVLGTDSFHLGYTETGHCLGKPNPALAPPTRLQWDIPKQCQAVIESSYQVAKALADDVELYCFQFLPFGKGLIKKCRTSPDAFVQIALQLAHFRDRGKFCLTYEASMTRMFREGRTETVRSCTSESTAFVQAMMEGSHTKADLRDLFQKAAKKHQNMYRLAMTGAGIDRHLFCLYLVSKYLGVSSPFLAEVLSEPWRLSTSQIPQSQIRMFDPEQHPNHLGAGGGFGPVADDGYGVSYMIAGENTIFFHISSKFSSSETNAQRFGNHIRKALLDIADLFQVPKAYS

[2] = biological target: T2, Carnitine O-palmitoyltransferase 2, mitochondrial (Homo sapiens, UniProt P23786); assay: (§1) SUPPLEMENTARY: Inhibition of Carnitine palmitoyltransferase 2
T2 sequence (P23786 whole entry): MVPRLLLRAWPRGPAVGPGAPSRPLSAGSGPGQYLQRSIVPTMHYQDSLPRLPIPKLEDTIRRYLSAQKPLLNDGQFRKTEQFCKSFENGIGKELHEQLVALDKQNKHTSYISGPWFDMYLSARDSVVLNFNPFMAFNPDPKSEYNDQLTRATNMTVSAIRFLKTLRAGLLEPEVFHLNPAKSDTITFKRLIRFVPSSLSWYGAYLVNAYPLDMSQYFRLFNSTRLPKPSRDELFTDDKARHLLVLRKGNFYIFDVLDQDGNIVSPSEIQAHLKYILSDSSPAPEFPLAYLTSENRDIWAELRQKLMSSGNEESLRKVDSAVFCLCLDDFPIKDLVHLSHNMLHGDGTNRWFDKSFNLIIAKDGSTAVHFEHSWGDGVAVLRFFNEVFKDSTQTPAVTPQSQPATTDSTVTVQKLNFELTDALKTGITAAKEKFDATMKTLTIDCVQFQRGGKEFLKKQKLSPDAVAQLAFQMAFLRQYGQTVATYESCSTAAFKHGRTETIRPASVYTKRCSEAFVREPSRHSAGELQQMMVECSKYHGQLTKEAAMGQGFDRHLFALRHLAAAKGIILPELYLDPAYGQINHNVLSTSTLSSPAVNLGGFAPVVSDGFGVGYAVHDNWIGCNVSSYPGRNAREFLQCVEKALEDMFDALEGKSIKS

[3] = biological target: T3, Carnitine O-palmitoyltransferase 2, mitochondrial (Rattus norvegicus, UniProt P18886); assay: as §1
T3 sequence (P18886 whole entry): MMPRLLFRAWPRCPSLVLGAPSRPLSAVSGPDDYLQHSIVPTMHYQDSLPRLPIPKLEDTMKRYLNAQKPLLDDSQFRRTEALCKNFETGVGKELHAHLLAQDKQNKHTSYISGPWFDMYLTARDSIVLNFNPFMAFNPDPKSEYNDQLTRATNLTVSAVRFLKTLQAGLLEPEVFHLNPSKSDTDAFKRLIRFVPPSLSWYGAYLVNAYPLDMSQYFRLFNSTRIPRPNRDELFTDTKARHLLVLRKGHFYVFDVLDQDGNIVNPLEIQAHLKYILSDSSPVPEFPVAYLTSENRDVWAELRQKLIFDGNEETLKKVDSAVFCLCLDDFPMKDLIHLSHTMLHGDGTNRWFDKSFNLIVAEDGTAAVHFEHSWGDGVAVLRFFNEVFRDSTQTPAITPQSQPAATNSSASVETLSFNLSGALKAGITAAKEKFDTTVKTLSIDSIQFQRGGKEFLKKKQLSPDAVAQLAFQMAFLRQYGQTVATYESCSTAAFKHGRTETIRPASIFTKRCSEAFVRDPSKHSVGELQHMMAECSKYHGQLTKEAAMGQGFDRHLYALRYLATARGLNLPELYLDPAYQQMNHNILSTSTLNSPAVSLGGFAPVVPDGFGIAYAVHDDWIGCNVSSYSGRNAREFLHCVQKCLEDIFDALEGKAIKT

[4] = biological target: T4, Carnitine O-palmitoyltransferase 1, liver isoform (Homo sapiens, UniProt P50416); assay: (§2) SUPPLEMENTARY: Inhibition of Carnitine palmitoyltransferase 1, liver isoform
T4 sequence (P50416 whole entry): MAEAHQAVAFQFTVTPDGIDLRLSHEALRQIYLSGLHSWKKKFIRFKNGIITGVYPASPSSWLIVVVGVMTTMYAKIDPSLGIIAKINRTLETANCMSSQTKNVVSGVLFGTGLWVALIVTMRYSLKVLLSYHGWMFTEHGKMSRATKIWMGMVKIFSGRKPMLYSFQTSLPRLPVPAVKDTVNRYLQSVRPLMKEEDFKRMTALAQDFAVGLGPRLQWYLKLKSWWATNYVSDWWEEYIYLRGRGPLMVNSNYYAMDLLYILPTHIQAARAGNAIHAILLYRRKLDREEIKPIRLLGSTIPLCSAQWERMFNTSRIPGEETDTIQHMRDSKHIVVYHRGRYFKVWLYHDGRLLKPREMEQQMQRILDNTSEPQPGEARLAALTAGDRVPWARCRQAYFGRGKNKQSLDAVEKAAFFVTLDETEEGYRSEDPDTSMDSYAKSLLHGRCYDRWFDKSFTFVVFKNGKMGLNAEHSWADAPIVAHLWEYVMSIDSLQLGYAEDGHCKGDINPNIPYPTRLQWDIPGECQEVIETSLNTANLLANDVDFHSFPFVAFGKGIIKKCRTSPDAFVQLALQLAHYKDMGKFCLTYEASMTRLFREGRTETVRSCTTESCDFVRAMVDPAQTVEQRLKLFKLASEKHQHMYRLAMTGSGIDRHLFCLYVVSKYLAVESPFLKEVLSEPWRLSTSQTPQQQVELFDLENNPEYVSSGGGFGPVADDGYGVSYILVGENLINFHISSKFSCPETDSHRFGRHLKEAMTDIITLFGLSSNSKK

[5] = biological target: T5, Carnitine O-palmitoyltransferase 1, liver isoform (Rattus norvegicus, UniProt P32198); assay: as §2
T5 sequence (P32198 whole entry): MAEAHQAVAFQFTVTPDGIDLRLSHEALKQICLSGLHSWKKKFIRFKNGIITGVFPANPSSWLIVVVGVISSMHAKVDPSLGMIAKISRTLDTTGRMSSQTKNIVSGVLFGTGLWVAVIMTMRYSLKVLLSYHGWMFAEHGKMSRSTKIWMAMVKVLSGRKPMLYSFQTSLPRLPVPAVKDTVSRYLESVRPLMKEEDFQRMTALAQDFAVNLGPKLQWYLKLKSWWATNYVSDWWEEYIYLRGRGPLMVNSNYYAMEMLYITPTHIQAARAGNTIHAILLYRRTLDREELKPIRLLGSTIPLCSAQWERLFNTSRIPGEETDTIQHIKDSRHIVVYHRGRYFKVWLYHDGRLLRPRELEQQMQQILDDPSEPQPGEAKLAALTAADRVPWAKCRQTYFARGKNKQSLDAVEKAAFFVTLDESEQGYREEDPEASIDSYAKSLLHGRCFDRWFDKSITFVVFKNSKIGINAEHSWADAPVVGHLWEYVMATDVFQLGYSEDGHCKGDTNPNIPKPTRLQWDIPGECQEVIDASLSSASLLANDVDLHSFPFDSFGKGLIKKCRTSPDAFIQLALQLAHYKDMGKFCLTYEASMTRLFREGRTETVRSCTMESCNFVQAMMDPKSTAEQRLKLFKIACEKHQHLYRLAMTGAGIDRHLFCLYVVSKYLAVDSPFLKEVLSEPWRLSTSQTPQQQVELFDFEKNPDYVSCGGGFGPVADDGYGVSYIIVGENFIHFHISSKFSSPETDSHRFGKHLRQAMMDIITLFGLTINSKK

[6] = SUPPLEMENTARY: Lyophilisation Solubility Assay (LYSA); format: physicochemical; conditions: read-out: Kinetic_solubility
[7] = SUPPLEMENTARY: Lipophilicity (log D) Determination by high-throughput shake-flask; format: physicochemical; conditions: octanol/water
[8] = SUPPLEMENTARY: PAMPA permeability assay; format: physicochemical; conditions: read-out: Permeability

Compound	IC50 [1] [µM]	IC50 [2] [µM]	IC50 [3] [µM]	IC50 [4] [µM]	IC50 [5] [µM]	solubility kinetic [6] [µg/mL]	logD [7]	Papp [8] [×10⁻⁶ cm/s]
Cn1cc(S(=O)(=O)c2cccc(Cl)c2)c2cc(C(=O)Nc3nc(CC(=O)O)cs3)ccc21	0.439	> 100	> 100	0.0754	0.0545	26 (≈ 53.1 µM)	0.25	0.95
CC(=O)Nc1cc(-c2noc([C@H]3CCCCN3C(=O)COc3ccccc3)n2)ccc1F	> 100	> 100	> 100	0.0279	0.146	18 (≈ 41.1 µM)	3	2.17
Nc1ccc(-c2n[nH]c([C@H]3CCCCN3C(=O)COc3ccccc3)n2)cn1	> 100	45.3	66	0.286	0.865	111 (≈ 293 µM)	1.92	3.97
O=C(COc1ccccc1)N1CCCC[C@@H]1c1nc(-c2cccc(F)c2)n[nH]1	> 100	> 100	> 100	0.0827	0.25	23 (≈ 60.5 µM)	3.5	1.45
COc1ccc(Cl)cc1S(=O)(=O)N1CC(C(=O)O)Oc2ccc(C(=O)Nc3ccccc3F)cc21 (configuration not stated)	> 100	> 100	> 100	0.218	0.169	> 617	-0.49	0.38
O=C(COc1ccncc1)N1CCCC[C@@H]1c1nnc(-c2cccc(C(F)(F)F)c2)[nH]1	10.4	43.5	41.2	0.165	0.194	78 (≈ 181 µM)	3.29	1.75
N#Cc1ccc(-c2nc([C@H]3CCCCN3C(=O)COc3ccccc3)no2)cn1	> 100	7.28	79.2	0.166	0.247	33 (≈ 84.7 µM)	2.54	8.44
Cc1cc(C)cc(S(=O)(=O)N2CC[S+]([O-])c3ccc(C(=O)Nc4ccc(C(=O)O)cc4)cc32)c1 (configuration not stated)	37	1.86	> 100	0.0598	0.0575	2 (≈ 4.01 µM)	0.1	0.49
COc1ccc(Cl)cc1S(=O)(=O)N1CCS(=O)(=O)c2ccc(C(=O)Nc3ccc(C(=O)O)cc3)cc21	> 100	> 100	> 100	0.03	0.0126	3 (≈ 5.44 µM)	2.68	1.9
COc1ccc(C)cc1S(=O)(=O)N1CCCc2ccc(C(=O)Nc3nc(CC(=O)O)cs3)cc21	2.4	> 100	> 100	0.0546	0.0418	51 (≈ 102 µM)	3.19	1.69
CCOC(=O)C1CN(S(=O)(=O)c2cc(Cl)ccc2OC)c2cc(C(=O)Nc3cccc(F)c3)ccc2O1 (configuration not stated)	> 100	> 100	> 100	0.221	0.339	< 1	3.58	1.31
COc1ccc(Cl)cc1S(=O)(=O)N1CCOc2c(C)cc(C(=O)Nc3ccc(CC(=O)O)cc3)cc21	3.65	> 100	> 100	0.272	0.206	502 (≈ 946 µM)	0.68	2.08
NC(=O)c1cncc(-c2noc([C@H]3CCCCN3C(=O)COc3ccccc3)n2)c1	> 100	24.3	86.3	0.113	0.41	141 (≈ 346 µM)	1.88	3.83
Cc1cc(C)cc(S(=O)(=O)c2n[nH]c3ccc(C(=O)Nc4ccc(C(=O)O)cc4)cc23)c1	1.25	1.36	4.34	0.0512	0.0264	40 (≈ 89 µM)	1.89	0.03
